These results are taken from patent US20140228299A1, “PROPHYLACTIC AND THERAPEUTIC AGENT FOR NEUROLOGICAL DISEASES USING LIPOPROTEINS AND PROPHYLACTIC AND THERAPEUTIC METHOD FOR NEUROLOGICAL DISEASES” (National University Corporation Tokyo Medical and Dental …, priority 2011, published 2014).

In the assay the test system is retinal ganglion cells. The assay is described as follows: Glutamic acid-induced apoptosis of cultured retinal ganglion cells (Hoechst 33342 or calcein AM/propidium iodide staining). The assay is classed as cell-based, rat. Conditions: for apoptosis of retinal cells induced by glutamic acid (apoptosis-like cells): Hoechst 33342. The protocol: The primary culture of the retinal glia cells was carried out using two-day-old Sprague Dawley (SD) baby rats in accordance with a somewhat modified method (Hayashi et al., J. Biol. Chem. 2009) of the method of Barres et al. (Barres, et al., 1988). The isolated retinal glia cells (RGC) were suspended in a base culture medium of a RGC medium (1 mM glutamine, 5 μg/mL insulin, 60 μg/mL N-acetylcysteine, 62 ng/mL progesterone, 16 μg/mL putrescine, 40 ng/mL sodium selenite, 0.1 mg/mL bovine serum albumin, 40 ng/mL triiodothyronine, 0.1 mg/mL transferrin, 1 mM sodium pyruvate, 2% B27 supplement (Invitrogen, Carlsbad, Calif.), 10 μM forskolin (Sigma, St. Louis, Mo.), 50 ng/mL brain-derived neurotrophic factor (BDNF; PeproTech, Rocky Hill, N.J.), 50 ng/mL ciliary neurotrophic factor (CNTF; Peprotech), and 50 ng/mL basic fibroblast growth factor (bFGF; PeproTech). A 96-well plate was coated with poly-d-lysine (Sigma) and laminin (Sigma), and RGC was placed at the rate of 5,000 cells per well for the 96-well place, 5,000 cells per each culture insert for microdish, or 15,000 cells per dish for compartmentalized culture, followed by incubating for at least 10 days before experimentation.
In the figure, Cant represents a non-treated group, Glu represents a group with 300 μM glutamic acid added, and +glial LP represents a group with 300 μM glutamate+glia-cell-derived lipoprotein containing apolipoprotein E added. Glial LP was added in the concentration of 1 μg cholesterol/mL. After treatment, the rate of apoptosis-like cells was computed by observing the aggregation of the nuclei (a: nuclear staining with Hoechst 33342) or the sustained impermeability of esterase activity/membrane (b: calcein AM/Propidium Iodide staining) in 24 hours.
The induction and detection of apoptosis in RGC were performed in the manner as described below. Specifically, RGC was washed twice with Hanks' balanced salt solution (HBSS) containing 2.4 mM CaCl2 and 20 mM HEPES, but not containing magnesium, and incubated at 37° C. for 2 hours in a medium prepared by adding 300 μM glutamate and 10 μM glycine to the above Hanks' balanced salt solution. After treatment with glutamate, RGC was incubated at 37° C. for 22 hours in a RGC culture medium containing no forskolin, BDNF, CNTF and bFGF. In order to detect apoptosis, RGC was stained with 1 μg/mL of Hoechst 33342 (346-07951, Dojindo, Kumamoto, Japan) or 1 μg/mL of calcein-AM/propidium iodide (341-07381, Dojindo). The fluorescence images were observed by Olympus IX71 microscope. The fragmented or aggregated nuclei stained with the above Hoechst reagent were counted as apoptotic nuclei, and round and smooth nuclei were counted as sound nuclei. As the sound nuclei were not stained with propidium iodide, the nuclei stained with propidium iodide were counted as apoptotic nuclei. More than 300 nuclei were counted in each group.
The apoptosis of RGC was measured in the following manner. The RGC subjected to the primary incubated was incubated two times at 37° C. for 15 minutes using Hanks' Balanced Salt Solution (HBSS) containing 2.4 mM CaCl2 and 20 mM 4-(2-hydroxyethyl)-pyperazine-1-ethanesulfonic acid (HEPES) but containing no magnesium and then washed. […], the magnesium was removed from the washing solution. Thereafter, the RGC was treated or not treated with […] (a co-activating agent for the NMDA receptor) in HBSS containing 2.4 mM CaCl2 and 20 mM HEPES (without magnesium) and then incubated at 37° C. for 2 hours. A control (HBSS containing 2.4 mM CaCl2 and 20 mM HEPES (without containing magnesium)) or the RGC treated or not treated with glutamic acid was incubated at 37° C. for 22 hours in the same medium as used for the RGC (without forskolin, brain-derived neurotrophic factor, ciliary neurotrophic factor and basic fibroblast growth factor). […]

Non-standard residues stand in square brackets, D forms with d. Residues, ends and D or L forms follow the SMILES beside them. *: point of attachment. Nle = CCCC[C@H](N)C(=O)O; Cbz = O=C(OCc1ccccc1)*; CH2F = FC*

On to `CCCC[C@@H](C=O)NC(=O)[C@H](CC(C)C)NC(=O)[C@H](CC(C)C)NC(C)=O` [ALLN, reference compound] (Ac-Leu-Leu-[Nle]-aldehyde), for which the “apoptosis of retinal cells induced by glutamic acid (apoptosis-like cells)” value (from here on “apoptosis of retinal cells induced”) (inhibitor 1 μM) is “inhibition of apoptosis”.
With `C[C@]12N[C@H](Cc3ccccc31)c1ccccc12` [MK 801, reference compound], the “apoptosis of retinal cells induced” value (inhibitor 10 μM) is on record as “inhibition of apoptosis”.
Turning to `COC(=O)C[C@H](NC(=O)[C@H](C)NC(=O)[C@@H](NC(=O)OCc1ccccc1)C(C)C)C(=O)CF` [Z-VAD-FMK, reference compound] (Cbz-Val-Ala-Asp(OMe)-CH2F), the “apoptosis of retinal cells induced” value (inhibitor 20 μM) is reported as “apoptosis inhibition”.

B1: α2-macroglobulin: α2-macroglobulin activated with methylamine; hinders neuroprotection by apoE-containing lipoprotein (protein, UniProt P01023 24-1474, looked up)
Alpha-2-macroglobulin: SVSGKPQYMVLVPSLLHTETTEKGCVLLSYLNETVTVSASLESVRGNRSLFTDLEAENDVLHCVAFAVPKSSSNEEVMFLTVQVKGPTQEFKKRTTVMVKNEDSLVFVQTDKSIYKPGQTVKFRVVSMDENFHPLNELIPLVYIQDPKGNRIAQWQSFQLEGGLKQFSFPLSSEPFQGSYKVVVQKKSGGRTEHPFTVEEFVLPKFEVQVTVPKIITILEEEMNVSVCGLYTYGKPVPGHVTVSICRKYSDASDCHGEDSQAFCEKFSGQLNSHGCFYQQVKTKVFQLKRKEYEMKLHTEAQIQEEGTVVELTGRQSSEITRTITKLSFVKVDSHFRQGIPFFGQVRLVDGKGVPIPNKVIFIRGNEANYYSNATTDEHGLVQFSINTTNVMGTSLTVRVNYKDRSPCYGYQWVSEEHEEAHHTAYLVFSPSKSFVHLEPMSHELPCGHTQTVQAHYILNGGTLLGLKKLSFYYLIMAKGGIVRTGTHGLLVKQEDMKGHFSISIPVKSDIAPVARLLIYAVLPTGDVIGDSAKYDVENCLANKVDLSFSPSQSLPASHAHLRVTAAPQSVCALRAVDQSVLLMKPDAELSASSVYNLLPEKDLTGFPGPLNDQDNEDCINRHNVYINGITYTPVSSTNEKDMYSFLEDMGLKAFTNSKIRKPKMCPQLQQYEMHGPEGLRVGFYESDVMGRGHARLVHVEEPHTETVRKYFPETWIWDLVVVNSAGVAEVGVTVPDTITEWKAGAFCLSEDAGLGISSTASLRAFQPFFVELTMPYSVIRGEAFTLKATVLNYLPKCIRVSVQLEASPAFLAVPVEKEQAPHCICANGRQTVSWAVTPKSLGNVNFTVSAEALESQELCGTEVPSVPEHGRKDTVIKPLLVEPEGLEKETTFNSLLCPSGGEVSEELSLKLPPNVVEESARASVSVLGDILGSAMQNTQNLLQMPYGCGEQNMVLFAPNIYVLDYLNETQQLTPEIKSKAIGYLNTGYQRQLNYKHYDGSYSTFGERYGRNQGNTWLTAFVLKTFAQARAYIFIDEAHITQALIWLSQRQKDNGCFRSSGSLLNNAIKGGVEDEVTLSAYITIALLEIPLTVTHPVVRNALFCLESAWKTAQEGDHGSHVYTKALLAYAFALAGNQDKRKEVLKSLNEEAVKKDNSVHWERPQKPKAPVGHFYEPQAPSAEVEMTSYVLLAYLTAQPAPTSEDLTSATNIVKWITKQQNAQGGFSSTQDTVVALHALSKYGAATFTRTGKAAQVTIQSSGTFSSKFQVDNNNRLLLQQVSLPELPGEYSMKVTGEGCVYLQTSLKYNILPEKEEFPFALGVQTLPQTCDEPKAHTSFQISLSVSYTGSRSASNMAIVDVKMVSGFIPLKPTVKMLERSNHVSRTEVSSNHVLIYLDKVSNQTLSLFFTVLQDVPVRDLKPAIVKVYDYYETDEFAIAEYNAPCSKDLGNA
With B1, the “effect on the neuroprotective effects of the lipoprotein containing apoE” value (Glu+100 ng protein/mL E-LP in the presence of a2M) was “hinders the neuroprotective effects”.
